Assay results published in publication PMC8763382, “2-Sulfonylpyrimidines as Privileged Warheads for the Development of S. aureus Sortase A Inhibitors” (Frontiers in Molecular Biosciences, 2022).
Several values for one entry are separate records, joined by “and”; a condition that tells them apart may be missing. Equal entries are not always repeated.

Experiments:
DENV NS2B/NS3 protease = DENV NS2B/NS3 protease (Dengue virus type 2, UniProt P29990); experiment: protease selectivity panel, fluorometric assay DENV NS2B/NS3 protease; type: biochemical; conditions: 100 µM inhibitor, n. i. = no inhibition at 100 µM; for inhibition at 100 µM: read-out: DENV inhibition relative to the DMSO control
Description: (§1) To investigate how these sulfonylpyrimidines affect the activity of other cysteine and serine proteases, a selectivity panel was constructed from a matrix of 6 diverse sulfonylpyrimidines and 6 different proteases. The compounds were assayed at a final compound concentration of 100 µM for the cysteine proteases human cathepsin B (hCatB), cathepsin L (hCatL), and T. brucei rhodesain (Rd). Furthermore, the serine proteases NS2B-NS3 from Zika virus (ZIKV), the homologous protease from Dengue virus (DENV), and the human protease urokinase plasminogen activator (uPA) were tested for their susceptibility.
(§2) Fluorometric assays of the ZIKV/DENV NS2B/NS3 protease were performed as described previously ([Maus et al., 2021]). The assay was carried out in triplicates at 25°C in assay buffer (50 mM Tris, pH 9.0, 20% glycerol (v/v), and 1 mM CHAPS). 100 µM Boc-Gly-Arg-Arg-AMC (Bachem, Bubendorf, Switzerland) was used as a substrate. Fluorometric assays for cathepsin B, cathepsin L, and rhodesain (Calbiochem, Merck Millipore, Burlington, Massachusetts) were performed as described previously ([Klein et al., 2020a]). Cbz-Phe-Arg-AMC (Bachem, Bubendorf, Switzerland) was used as substrate (100 μM for cathepsin B, 6.5 μM for cathepsin L, and 10 µM for rhodesain). Fluorometric assays for urokinase plasminogen activator were performed as described previously ([Angelini et al., 2012]). 240 µM Cbz-Gly-Arg-Arg-AMC (Bachem, Bubendorf, Switzerland) was used as a substrate.

[1] = in-solution reaction with free cysteine (ESI-MS / LC/MS); type: physicochemical
Description: Thus, we determined the point of nucleophilic thiol attack by means of ESI mass spectrometry between the reaction of compound 7a and cysteine in phosphate buffered solution at pH 7.5.
Furthermore, the influence of different solvents on the reaction of sulfonylpyrimidines with thiols in solution was investigated.
To a solution of 100 µM cysteine in phosphate-buffered saline (1×, pH 7.5), compound 5a or 7a (100 μM, 5% DMSO) was added and incubated for 10 min at room temperature. The negative labeling control was performed by mock treatment with DMSO. Samples were analyzed by LC/MS using an Agilent 1100 series HPLC system with an Agilent Poroshell 120 EC-C18 column (150 × 2.10 mm 4 μm; mobile phase: ACN/H2O 45:55 + 0.1% formic acid; flow rate: 0.4 ml/min) and electron spray ionization with the Agilent 1100 series LC/MSD Trap in positive ionization mode.

[2] = biological target: T1, NS2B-NS3 from Zika virus (ZIKV) (Zika virus, UniProt Q32ZE1); experiment: protease selectivity panel, fluorometric assay ZIKV NS2B/NS3 protease; type: biochemical; conditions: 100 µM inhibitor; read-out: ZIKV inhibition relative to the DMSO control
T1 construct: The ZIKV NS2B/NS3 protease is a serine protease and contains two non-catalytic cysteine residues
Description: as §1, §2

S. aureus SrtA [3] = biological target: T2, S. aureus SrtA (Staphylococcus aureus, UniProt Q2FV99); experiment: fluorometric enzyme assay of SrtA transpeptidation (Abz-LPETG-Dap(Dnp)-OH substrate); type: biochemical; conditions: for S. I. (k 2nd/k chem): SrtA k 2nd over cysteine k chem; for k inact: maximum inactivation rate; for k inact / KI (inactivation) / k 2nd: Tris pH 7.50, n. i. = <20% inhibition at 100 µM; for KI (inactivation): read-out: KI, dissociation constant of the reversible enzyme-inhibitor complex; for inhibition at 100 µM: read-out: SrtA inhibition relative to the DMSO control; for k 2nd: second-order rate of inhibition
T2 construct: His tag (inferred from IMAC on a HisTrap column); made in house; host or cells: E. coli BL21 Gold (DE3)
Description: To evaluate the inhibition potency of the parent sulfonylpyrimidine 4, this compound was tested by means of a fluorometric enzyme assay with recombinantly expressed S. aureus SrtA ([Schmohl et al., 2017b]) and Abz-LPETG-Dap (Dnp)-OH as substrate. […] To verify the irreversible mode of inhibition, we determined the maximum inactivation rate k inact, the dissociation constant of the reversible enzyme-inhibitor complex KI, and the second-order rate of inhibition k 2nd. For compound 4, a k inact = 0.00065 s^−1 was found, which is very low compared to other covalent SrtA inhibitors ([Chan et al., 2017]; [Barthels et al., 2020]; [Jaudzems et al., 2020]).
Inhibition assays of S. aureus SrtA transpeptidation reactions were performed as described previously ([Barthels et al., 2020]). Briefly, the recombinantly expressed SrtA (final concentration: 1 µM) was incubated in assay buffer (50 mM Tris, 150 mM NaCl, 5 mM CaCl2, pH 7.50) with 25 µM of the FRET-pair substrate Abz-LPETG-Dap (Dnp)-OH (Genscript, Piscataway, New Jersey) and 0.5 mM tetraglycine (Sigma Aldrich, St. Louis, Missouri). Inhibitors were added from DMSO stocks. Reactions were initiated by addition of SrtA and monitored for 30 min at 30°C in an Infinite M200 Pro plate reader with λex 320 nm/λem 430 nm (Tecan, Männedorf, Switzerland). Three technical replicates were carried out for each inhibitor in black flat-bottom 96-well plates (Greiner bio-one, Kremsmünster, Austria). The enzyme kinetics of irreversible SrtA inactivation were analyzed as described previously ([Barthels et al., 2020]).

[4] = biological target: T3, human cathepsin B (hCatB) (Homo sapiens, UniProt P07858); experiment: protease selectivity panel, fluorometric assay cathepsin B; type: biochemical; conditions: 100 µM inhibitor; read-out: CatB inhibition relative to the DMSO control
T3 construct: purchased Calbiochem, Merck Millipore
Description: as §1, §2

T. brucei rhodesain (Rd) = biological target: T4, T. brucei rhodesain (Rd) (Trypanosoma brucei rhodesiense, UniProt Q95PM0); experiment: protease selectivity panel, fluorometric assay rhodesain; type: biochemical; conditions: 100 µM inhibitor, n. i. = no inhibition at 100 µM; for inhibition at 100 µM: read-out: Rd inhibition relative to the DMSO control
T4 construct: purchased Calbiochem, Merck Millipore
Description: as §1, §2

cathepsin L (hCatL) = biological target: T5, cathepsin L (hCatL) (Homo sapiens, UniProt P07711); experiment: protease selectivity panel, fluorometric assay cathepsin L; type: biochemical; conditions: 100 µM inhibitor; read-out: CatL inhibition relative to the DMSO control
T5 construct: purchased Calbiochem, Merck Millipore
Description: as §1, §2

[5] = biological target: human protease urokinase plasminogen activator (uPA) (Homo sapiens, UniProt P00749); experiment: protease selectivity panel, fluorometric assay urokinase plasminogen activator; type: biochemical; conditions: 100 µM inhibitor; n. i. = no inhibition at 100 µM; read-out: uPA inhibition relative to the DMSO control
Description: as §1, §2

[6] = cysteine reactivity assay (competitive fluorescence assay with probe 8); type: physicochemical; conditions: phosphate buffer (1×PBS) pH 7.5
Excerpt: In order to study the kinetics of sulfonylpyrimidines reacting with free cysteine in solution, a strategy for a competitive fluorescence-based assay was adapted from previous works ([Epps and Taylor, 2001]; [Sameshima et al., 2017]). […] The reaction of probe 8 with cysteine liberates 4-methylumbelliferone as a fluorometrically detectable product (Figure 7A), and thus, the fluorescence increase can be described by the second-order rate constant k probe (Equation 1).
Upon the addition of competitive and irreversible cysteine modifiers such as sulfonylpyrimidines, the fluorescence increase of the probe reaction was hyperbolically attenuated (Figure 7B). According to the conceptual deduction described previously ([Epps and Taylor, 2001]; [Sameshima et al., 2017]), the experimental fluorescence curves can be analyzed by nonlinear regression as first-order reaction progress curves (Equation 2). The parameter k obs describes the curvature corresponding to the sum of the competing kinetics (Equation 3). Under the assumptions that 1) the competitive reaction between sulfonylpyrimidines vs. probe with cysteine is started by simultaneous addition, and 2) sulfonylpyrimidines are added at a much higher concentration than cysteine (5 µM) and the probe (5 µM), the k obs values depend substantially on the k chem value. The compound-specific second-order inactivation parameter k chem can be determined by linear regression from the k obs values of the dilution series (Equation 4). d[FL]/dt=kprobe[Cys][probe] (1) FL=[Cys]total⋅kprobe [probe]/kprobe [probe] + kchem [sulfonylpyrimidine](1−e^−kobs⋅t) (2) kobs=kchem [sulfonylpyrimidine]+kprobe [probe] (3) kchem=kobs/[sulfonylpyrimidine] (4)
Kinetic characterization of the reaction between sulfonylpyrimidines and cysteine was performed in degassed phosphate buffer (1×PBS, pH 7.5) or individual cases in bicarbonate buffer (20 mM NaHCO3, 100 mM NaCl, pH 7.5). Three technical replicates were carried out for each sulfonylpyrimidine in black flat-bottom 96-well plates. For this purpose, 50 µL buffered solution (including 5% (v/v) DMSO) of the respective sulfonylpyrimidine derivative (final: 250–3 µM) and the cysteine reactive probe 8 (final: 5 µM) were premixed. Reactions were initiated by the addition of 50 µL cysteine (final: 5 µM), dissolved in the respective buffer, and monitored for 30 min at 30°C in an Infinite M200 Pro plate reader with λex 380 nm/λem 460 nm. To calculate k obs and k chem values, fluorescence curves were fitted using the same non-linear regression as for in vitro inhibition of SrtA ([Barthels et al., 2020]).

S. aureus SrtA [7] = biological target: T2, S. aureus SrtA; experiment: fluorometric enzyme assay of SrtA transpeptidation (Abz-LPETG-Dap(Dnp)-OH substrate); type: biochemical
His120 = His120 (UniProt position 120, ISIAGHTFIDR); conditions: free enzyme (inferred); cited from earlier work
Cys184 = Cys184 (UniProt position 184, LTLITCDDYNE); experiment: NMR; conditions: free enzyme (inferred); cited from earlier work

T2 sequence (Q2FV99 60-206): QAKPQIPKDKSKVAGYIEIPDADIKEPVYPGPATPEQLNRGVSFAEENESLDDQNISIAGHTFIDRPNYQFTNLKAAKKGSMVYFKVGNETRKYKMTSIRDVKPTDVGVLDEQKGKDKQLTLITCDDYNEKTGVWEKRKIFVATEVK
T1 sequence (Q32ZE1 1499-1676): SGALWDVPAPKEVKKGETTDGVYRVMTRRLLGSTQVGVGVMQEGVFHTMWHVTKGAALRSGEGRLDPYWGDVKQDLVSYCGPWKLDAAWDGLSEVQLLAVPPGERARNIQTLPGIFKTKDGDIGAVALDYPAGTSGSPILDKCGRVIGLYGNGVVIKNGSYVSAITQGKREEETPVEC
T1 sequence (Q32ZE1 1421-1460): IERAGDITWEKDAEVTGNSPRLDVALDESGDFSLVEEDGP
T5 sequence (P07711 114-333): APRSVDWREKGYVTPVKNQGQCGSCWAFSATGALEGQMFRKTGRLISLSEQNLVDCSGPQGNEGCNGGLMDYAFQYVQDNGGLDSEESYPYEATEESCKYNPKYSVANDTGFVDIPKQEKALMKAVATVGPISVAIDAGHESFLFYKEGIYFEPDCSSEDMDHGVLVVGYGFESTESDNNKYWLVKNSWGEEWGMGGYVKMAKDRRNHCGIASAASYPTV
T4 sequence (Q95PM0 entry or part of it): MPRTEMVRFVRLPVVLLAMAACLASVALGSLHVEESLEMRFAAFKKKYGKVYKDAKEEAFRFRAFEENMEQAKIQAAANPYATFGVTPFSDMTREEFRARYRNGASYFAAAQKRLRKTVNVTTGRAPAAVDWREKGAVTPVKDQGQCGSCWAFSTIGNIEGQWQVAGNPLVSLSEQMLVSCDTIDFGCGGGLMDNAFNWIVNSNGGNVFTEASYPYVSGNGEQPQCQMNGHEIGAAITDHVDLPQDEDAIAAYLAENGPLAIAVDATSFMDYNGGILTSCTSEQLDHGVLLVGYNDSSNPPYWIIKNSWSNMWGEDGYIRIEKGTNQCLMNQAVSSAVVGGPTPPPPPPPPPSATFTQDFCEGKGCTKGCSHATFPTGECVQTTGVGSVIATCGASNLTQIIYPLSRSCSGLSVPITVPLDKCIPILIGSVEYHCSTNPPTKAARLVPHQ
Chain of DENV NS2B/NS3 protease (P29990 1398-1437): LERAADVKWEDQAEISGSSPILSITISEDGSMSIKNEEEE
Chain of DENV NS2B/NS3 protease (P29990 1476-1653): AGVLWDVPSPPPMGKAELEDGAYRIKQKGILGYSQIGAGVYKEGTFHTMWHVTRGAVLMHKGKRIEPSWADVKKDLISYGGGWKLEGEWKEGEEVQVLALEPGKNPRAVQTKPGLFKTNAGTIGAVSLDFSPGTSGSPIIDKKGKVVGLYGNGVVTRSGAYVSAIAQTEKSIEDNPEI

Row | Compound | inhibition at 100 µM [2] [%] | S. I. (k 2nd/k chem) (S. aureus SrtA [3]) | k inact (S. aureus SrtA [3]) | KI (inactivation) (S. aureus SrtA [3]) [µM] | inhibition at 100 µM (S. aureus SrtA [3]) [%] | k 2nd (S. aureus SrtA [3]) | inhibition at 100 µM [4] [%] | inhibition at 100 µM (T. brucei rhodesain (Rd)) [%] | inhibition at 100 µM (cathepsin L (hCatL)) [%] | inhibition at 100 µM [5] [%] | melting point [°C] | Cysteine k chem [6] [M⁻¹ s⁻¹] | inhibition at 100 µM (DENV NS2B/NS3 protease) [%] | also measured
1 | CS(=O)(=O)c1ncc(Cl)c(C(=O)Nc2cccc(Oc3ccccc3)c2)n1 [Compound 5a] | 6.4 | 159 | 0.0077 s⁻¹ and 0.00774 ± 0.00007 s⁻¹ | 57.6 ± 3.55 | 99 | 8,088 M^−1min^−1 and 8,088 ± 464 M^−1min^−1 | 6.6 | 24.6 | 8.8 | 23 | 156 | 0.847 ± 0.277 | – | DENV inhibition relative to the DMSO control (DENV NS2B/NS3 protease): n. i.; time to quantitative reaction with cysteine ([1]; compound 100 µM, cysteine 100 µM, phosphate buffered solution pH 7.5): < 10 min; reactivity with cysteine (in words) ([1]; water/DMSO mixtures, no buffer): No reactivity; improvement of overall inhibition potency (k 2nd), factor (S. aureus SrtA [3]; versus parent compound 4): 10; k 2nd (S. aureus SrtA [7]; pH 6.5, Tris or Bis-Tris buffer): 4,384 M^−1min^−1; k 2nd (S. aureus SrtA [7]; pH 7.0, Tris or Bis-Tris buffer): 8,436 M^−1min^−1; k 2nd (S. aureus SrtA [7]; zwitterionic HEPES buffer at pH 7.5): 7,956 M^−1min^−1
2 | CS(=O)(=O)c1ncc(Cl)c(C(=O)Nc2cccc(C(=O)c3ccccc3)c2)n1 [Compound 6a] | 18.6 | 327 | 0.00986 ± 0.00128 s⁻¹ | 29.6 ± 9.39 | 98.4 | 20,785 ± 4,074 M^−1min^−1 | 5.6 | – | 18 | 2.2 | 175 | 1.06 ± 0.14 | 5.1 | fold more potent based on the k 2nd value (S. aureus SrtA [3]; versus virtual screening hit 5a): 2.5 fold; Rd inhibition relative to the DMSO control (T. brucei rhodesain (Rd)): n. i.
3 | CS(=O)(=O)c1nc(Cl)cc(NC(=O)c2ccccc2Oc2ccccc2)n1 [Compound 6i] | 29.3 | – | – | – | 36 | – | 9.5 | 9.2 | 21.3 | 59.4 | 184 | 0 | 15 | SrtA inhibition (in words) (S. aureus SrtA [3]; fluorometric enzyme assay, inhibitor concentration 100 µM): complete loss of inhibition
4 | CS(=O)(=O)c1ncc(Br)c(C(=O)Nc2cccc(Oc3ccccc3)c2)n1 [Compound 7b] | 18.3 | 134 | 0.01285 ± 0.00147 s⁻¹ | 55.9 ± 11.6 | 99.2 | 13,998 ± 1,462 M^−1min^−1 | 12.5 | 4.7 | 28.5 | 11.2 | 153 | 1.735 ± 0.323 | 5.2 | –
5 | Sortase A (SrtA) (Staphylococcus aureus) | – | – | – | – | – | – | – | – | – | – | – | – | – | pKa (His120): 6.3; pKa (Cys184): 9.4
